US20170291905A1, “ARGININE […] INHIBITORS AND USES THEREOF” (Epizyme, Inc., priority 2014, published 2017)
Structures can show the parent of a compound that is named as a salt.

Target: T1, full-length human PRMT1 isoform 1 (GST-tagged) (Homo sapiens, UniProt Q99873)
T1 construct: GST-tagged PRMT1 was eluted with 50 mM Tris, 2 mM glutathione, pH 7.8, dialysed in buffer A and concentrated; made in house; host or cells: High Five insect cells (baculovirus)
Assay: PRMT1 biochemical assay (3H-SAM Flashplate, histone H4 36-50 peptide)
Conditions: 0.5 nM PRMT1, 30 min preincubation, 20 nM peptide
Procedure, shortened: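 GST-PRMT1 (0.5 nM) preincubated 30 min at room temperature with compound in bicine buffer pH 7.6. Reaction then run with 200 nM 3H-SAM plus 1.5 uM SAM and 20 nM biotinylated H4 36-50 peptide, 2% DMSO. Stopped with excess cold SAM, and methylated peptide captured on streptavidin Flashplates for counting; % inhibition versus DMSO and 1 mM SAH controls, 3- or 4-parameter fit.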

T1 sequence (Q99873 with tags, fused parts or gaps): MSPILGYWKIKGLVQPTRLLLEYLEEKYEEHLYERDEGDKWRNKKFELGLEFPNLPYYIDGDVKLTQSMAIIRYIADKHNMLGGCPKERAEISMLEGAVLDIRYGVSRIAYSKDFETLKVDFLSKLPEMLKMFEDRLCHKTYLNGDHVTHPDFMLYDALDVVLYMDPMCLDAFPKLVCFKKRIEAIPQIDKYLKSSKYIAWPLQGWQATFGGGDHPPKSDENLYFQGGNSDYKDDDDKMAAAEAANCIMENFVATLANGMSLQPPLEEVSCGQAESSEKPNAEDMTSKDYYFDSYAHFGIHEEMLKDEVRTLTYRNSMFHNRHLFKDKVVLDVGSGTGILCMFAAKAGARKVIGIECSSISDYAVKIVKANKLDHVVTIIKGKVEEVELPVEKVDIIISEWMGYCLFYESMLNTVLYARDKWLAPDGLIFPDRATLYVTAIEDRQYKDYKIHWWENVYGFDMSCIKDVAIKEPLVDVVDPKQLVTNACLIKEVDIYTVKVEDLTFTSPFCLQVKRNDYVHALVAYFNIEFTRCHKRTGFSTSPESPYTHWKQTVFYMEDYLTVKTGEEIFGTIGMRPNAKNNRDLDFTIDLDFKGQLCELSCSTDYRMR

CNCCN(C)Cc1c[nH]nc1[C@H]1CC[C@]2(CCCCO2)CC1 [compound 127, methyl([2-[methyl([3-[(6s,9r)-1-oxaspiro[5.5]undecan-9-yl]-1H-pyrazol-4-yl]methyl)amino]ethyl])amine bistrifluoroacetic acid salt]
IC50: 7.33 nM
